Test results taken from patent US20230123334A1, “AMINO LIPID COMPOUND, PREPARATION METHOD THEREFOR, AND APPLICATION THEREOF” (SHENZHEN SHENXIN BIOTECHNOLOGY CO., LTD., priority 2020, published 2023).

Tests used:
[1] = system: HEK293 cells; assay: Preliminary screening as mRNA vectors, EGFP mRNA transfection of HEK293 cells; format: cell-based; settings: HEK293 cells, 96-well plates, EGFP mRNA 50 ng per well; percentage of GFP fluorescent cells relative to total number of cells (Hoechst)
Summary of the method: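 Each well of HEK293 cells received 50 ng of EGFP mRNA. Efficiency was expressed as percent GFP-expressing cells over Hoechst-defined total cell number.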

[2] = system: HEK293 cells; assay: Preliminary screening as DNA vectors, GFP transfection of HEK293 cells; format: cell-based; settings: HEK293 cells; lipid/DOPE liposome with 75 ng plasmid DNA (psin-EGFP-IRES-Puro); number of cells expressing GFP divided by total number of nuclei (Hoechst)
Summary of the method: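 Lipid + DOPE liposomes (NaOAc, pH 5.6) complexed w/ 75 ng psin-EGFP-IRES-Puro, 30 min RT; added to 3-5×10^4 HEK293/well, 37° C. Hoechst 0.2 μg/mL at 20-24 h, imaged after further 20-24 h. Efficiency = GFP+ cells / total nuclei.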

| Structure (SMILES) | Absolute mRNA transfection efficiency in HEK293 cells [1] [%] | Absolute DNA transfection efficiency in HEK293 cells [2] [%] |
| --- | --- | --- |
| CCCCCCCCCCCCCCSc1nc(NCCN2CCN(C)CC2)nc(SCCCCCCCCCCC)n1 [Compound S11S14D5] | 9.1 | 5.1 |
| CCCCCCCCCCCCCCCCCCNc1nc(NCCCCCCCCCCCCC)nc(NCCN(C)C)n1 [Compound N13N18D1] | 13.8 | 2.7 |
| CCCCCCCCCCCCSc1nc(NCCCN2CCN(C)CC2)nc(SCCCCCCCCCCCC)n1 [Compound S12S12D9] | 1.3 | 1.9 |
| CCCCCCCCCCCCCCCCSc1nc(NCCCN(C)C)nc(SCCCCCCCCCCCCCCCC)n1 [Compound S16S16D6] | 0.5 | 0.5 |
| CCCCCCCCNc1nc(NCCCCCCCC)nc(NCCN2CCN(C)CC2)n1 [Compound N8N8D5] | 0.0 | 0.0 |
| CCCCCCCCCCCCCCCCNc1nc(NCC2CCN(C)CC2)nc(N(CCCCCCCCCCCC)CCCCCCCCCCCC)n1 [N16^2N12D10] | 0.0 | 1.5 |
| CCCCCCCCCCCCCCCNc1nc(NCCN(CC)CC)nc(N(CCCCCCCCCCCC)CCCCCCCCCCCC)n1 [N15^2N12D7] | 0.0 | 1.3 |
| CCCCCCCCCCCCCCCCCCSc1nc(NCCCN2CCN(C)CC2)nc(SCCCCCCCCCCCCCCCC)n1 [Compound S16S18D9] | 0.5 | 0.4 |
| CCCCCCCCCCCCCNc1nc(NCCN2CCCC2)nc(N(CCCCCCCCCCCC)CCCCCCCCCCCC)n1 [N13^2N12D3] | 7.3 | 0.6 |
| CCCCCCCCCCCCSc1nc(NCCN2CCN(C)CC2)nc(SCCCCCCCCCCCC)n1 [Compound S12S12D5] | 3.1 | 0.4 |
| CCCCCCCCCCCCCCCNc1nc(NCC2CCN(C)CC2)nc(N(CCCCCCCCCCCC)CCCCCCCCCCCC)n1 [N15^2N12D10] | 3.5 | 0.0 |
| CCCCCCCCCNc1nc(NCCCCCCC)nc(NCCN2CCCCC2)n1 [Compound N7N9D4] | 0.0 | 0.0 |
| CCCCCCCCCCCCN(CCCCCCCCCCCC)c1nc(NCCCCCCCC)nc(NCCCN(C)C)n1 [N8^2N12D6] | 0.9 | 0.0 |
| CCCCCCCCCCCCN(CCCCCCCCCCCC)c1nc(NCCCCCCCC)nc(NCCN2CCOCC2)n1 [N8^2N12D2] | 1.4 | 0.1 |
| CCCCCCCCCCCCCCCNc1nc(NCCCCCC)nc(NCC2CCN(C)CC2)n1 [Compound N6N15D10] | 0.7 | 0.2 |
| CCCCCCCCCCCCCCCCNc1nc(NCCCCCCC)nc(NCCCN2CCN(C)CC2)n1 [Compound N7N16D9] | 0.0 | 0.0 |
| CCCCCCCCCCCCCCCSc1nc(NCCN2CCOCC2)nc(SCCCCCCCC)n1 [Compound S8S15D2] | 0.0 | 10.8 |
| CCCCCCCCCCCCCCCCNc1nc(NCCCCCCCCCCCC)nc(NCCN2CCCC2)n1 [Compound N12N16D3] | 3.3 | 1.2 |
| CCCCCCCCNc1nc(NCCCCCCC)nc(NCCN2CCCCC2)n1 [Compound N7N8D4] | 0.0 | 0.2 |
| CCCCCCCCCCCCNc1nc(NCCCCCCCCCCCC)nc(NCCCN2CCN(C)CC2)n1 [Compound N12N12D9] | 1.5 | 0.0 |
| CCCCCCCCCCCCCCCCCCNc1nc(NCCCCCCCCCCCCCCC)nc(NCCN(CC)CC)n1 [Compound N15N18D7] | 8.3 | 3.2 |
| CCCCCCCCCCCCCCCCCCSc1nc(NCCN(CC)CC)nc(SCCCCCCCCCC)n1 [Compound S10S18D7] | 0.3 | 9.2 |
| CCCCCCCCCCCCCNc1nc(NCCCCCCCCCCCC)nc(NCCCN2CCOCC2)n1 [Compound N12N13D8] | 0.0 | 0.3 |
